Where a SMILES comes first, the peptide text is derived from it. Bridges are numbered along the chain shown (N, C = ends). [ ]: non-standard residue; d: D form. The star is where a group is joined. Heptanoyl(5-Me) = CCC(C)CCCC(=O)*; Dab = NCC[C@H](N)C(=O)O
Assays:
[1] = tested on: Burkholderia vietnamiensis AU10214; assay: Viable cell count (CFU) with colistin and apyrase; settings: apyrase 2 U/ml; colistin at less than 20 μg/ml
Procedure: Burkholderia vietnamiensis AU10214 was grown in the presence of combinations of 0 and 2 U/ml of apyrase and approximately 0 to 20 μg/ml of colistin. After incubation, the numbers of viable cells were determined by counting the colony forming units (CFU) on the plate (data provided as CFU/ml).

[2] = tested on: Burkholderia dolosa AU0589; assay: Viable cell count (CFU) with colistin and apyrase; settings: apyrase 2 U/ml; colistin at less than 20 μg/ml
Procedure: Burkholderia dolosa AU0589 was grown in the presence of combinations of 0 and 2 U/ml of apyrase and approximately 0 to 20 μg/ml of colistin. After incubation, the numbers of viable cells were determined by counting the colony forming units (CFU) on the plate (data provided as CFU/ml).

P. aeruginosa AU0584 = assay: Viable cell count (CFU) with colistin and apyrase; settings: apyrase 2 U/ml; colistin at less than 10 μg/ml
Procedure: P. aeruginosa AU0584 was grown in the presence of combinations of 0 and 2 U/ml of apyrase and approximately 0 to 20 μg/ml of colistin. After incubation, the numbers of viable cells were determined by counting the colony forming units (CFU) on the plate (data provided as CFU/ml).

[3] = tested on: Burkholderia cepacia GIIIa AU0019; assay: Viable cell count (CFU) with colistin and apyrase; assay type: cell-based; settings: apyrase 2 U/ml; colistin at less than 10 μg/ml
[4] = tested on: A. baumannii strain ATCC 19606; assay: Viable cell count (CFU) with colistin and apyrase; settings: apyrase 1 and 2 U/ml; colistin 0.25 to 2 μg/ml; colistin alone at the same concentrations
Procedure: Approximately 10^6 CFU/ml of A. baumannii strain ATCC 19606 was grown on solid medium culture plates in the presence of combinations of 0, 1, and 2 U/ml of apyrase and 0, 0.25, 0.5, 1, and 2 μg/ml of colistin. After incubation, the numbers of viable cells were determined by counting the colony forming units (CFU) on the plate (data provided as CFU/ml). […] In these Examples, the colistin is colistin sulfate salt, catalog number C4461 from Sigma-Aldrich (St. Louis, Mo.) and the apyrase is catalog number M0393L from New England BioLabs Inc. (Ipswich, Mass.).

[5] = tested on: Burkholderia cepacia GIIIb AU0055; assay: Viable cell count (CFU) with colistin and apyrase; settings: apyrase 2 U/ml; colistin at less than 10 μg/ml
Procedure: Burkholderia cepacia GIIIb AU0055 was grown in the presence of combinations of 0 and 2 U/ml of apyrase and approximately 0 to 20 μg/ml of colistin. After incubation, the numbers of viable cells were determined by counting the colony forming units (CFU) on the plate (data provided as CFU/ml).

[6] = tested on: P. aeruginosa strain AU7443, mucoid; assay: Viable cell count (CFU) with colistin and apyrase; settings: apyrase 2 U/ml; colistin at less than 20 μg/ml
Procedure: After incubation, the numbers of viable cells were determined by counting the colony forming units (CFU) on the plate (data provided as CFU/ml).

A. baumannii DMC1 [7] = assay: Mouse wound model, viable bacteria at burn sites 24 hours after burn; settings: C57BL/6 mice, colistin 4 μg/ml
Procedure: In addition, experiments were performed to test the synergistic killing effects of colistin and apyrase in vivo. An established mouse wound model was used for this test.
Female pathogen-free C57BL/6 mice (Harlan, Indianapolis, Ind.), 12 weeks old, weighing ˜20-23 grams were used in all experiments. The skin over the lumbrosacral and back region was clipped using a 35-W model 5-55 E electrical clipper (Oyster-Golden A-S, Head no. 80, blade size 40) by using the method described by Ipaktchi et al. with slight modification. Two hundred microliters of a 0.9% saline suspension of A. baumannii DMC1 (1×10^6 cells/ml), which is a highly colistin resistant clinical strain, was used for wound infection experiments. Viable bacterial numbers were determined 24 hours after burn. The Student t-test was used for statistical analysis.
Experiments were carried out in four groups: (1) a control group (n=6), which contained neither apyrase nor colistin; (2) apyrase group (n=9), which contained apyrase (1 U/ml); (3) colistin group (n=9), which contained colistin (4 μg/ml); and (4) apyrase and colistin group (n=9), which was treated with the combination of apyrase (1 U/ml) and colistin (4 μg/ml). The treatment was applied immediately after inoculation. After 24 hours, the mice were given lethal IP injections of pentobarbital (150 mg/kg) and skin samples were collected using a scalpel and scissors.

[8] = tested on: P. aeruginosa strain AU1292; assay: Viable cell count (CFU) with colistin and apyrase; settings: apyrase 2 U/ml; colistin at less than 20 μg/ml
Procedure: P. aeruginosa strain AU1292 was grown in the presence of combinations of 0 and 2 U/ml of apyrase and approximately 0 to 20 μg/ml of colistin. After incubation, the numbers of viable cells were determined by counting the colony forming units (CFU) on the plate (data provided as CFU/ml).

[9] = tested on: Burkholderia cepacia GIIIb AU0062; assay: Viable cell count (CFU) with colistin and apyrase; settings: apyrase 2 U/ml; colistin at less than 20 μg/ml
Procedure: Burkholderia cepacia GIIIb AU0062 was grown in the presence of combinations of 0 and 2 U/ml of apyrase and approximately 0 to 20 μg/ml of colistin. After incubation, the numbers of viable cells were determined by counting the colony forming units (CFU) on the plate (data provided as CFU/ml).

[10] = tested on: Burkholderia multivorans AU0801; assay: Viable cell count (CFU) with colistin and apyrase; settings: apyrase 2 U/ml; colistin at less than 10 μg/ml
Procedure: Burkholderia multivorans AU0801 was grown in the presence of combinations of 0 and 2 U/ml of apyrase and approximately 0 to 20 μg/ml of colistin. After incubation, the numbers of viable cells were determined by counting the colony forming units (CFU) on the plate (data provided as CFU/ml).

A. baumannii VBA9 = assay: MIC from dose-kill curves, colistin alone or with apyrase; assay type: cell-based; settings: 4 hours at 37° C., apyrase 2 U/ml in the combination
Procedure: (§1) Data were collected from systematic tests to investigate bacterial killing with colistin and apyrase combinations against ESKAPE bacteria in vitro. […] Dose-kill curves for 22 strains (colistin sensitive or resistant ˜10^6 CFU/ml) were generated after exposure to colistin at different concentrations by itself or in combination with apyrase (2 U/ml) for 4 hours at 37° C. Data were obtained from three independent experiments. […] The MIC of colistin and apyrase combinations was generally 2- to 8-fold lower in comparison to the MIC for colistin alone (FIG. 31 and Table 2). For Gram-positive strains, the MICs results obtained with colistin alone and with the combination of colistin and apyrase were very similar.

A. baumannii ATCC 19606 = assay: as above; assay type: cell-based; settings: 4 hours at 37° C., apyrase 2 U/ml in the combination
Procedure: as §1

K. pneumonia AD = assay: as above; assay type: cell-based; settings: 4 hours at 37° C., apyrase 2 U/ml in the combination
Procedure: as §1

S. aureus ATCC 25923 = assay: as above; assay type: cell-based; settings: 4 hours at 37° C., apyrase 2 U/ml in the combination
Procedure: as §1

P. aeruginosa ATCC 27853 = assay: as above; assay type: cell-based; settings: 4 hours at 37° C., apyrase 2 U/ml in the combination
Procedure: as §1

P. aeruginosa PAO300 = assay: as above; assay type: cell-based; settings: 4 hours at 37° C., apyrase 2 U/ml in the combination
Procedure: as §1

A. baumannii AC285 = assay: as above; assay type: cell-based; settings: 4 hours at 37° C., apyrase 2 U/ml in the combination
Procedure: as §1

B. multivorans AU0801 = assay: as above; assay type: cell-based; settings: 4 hours at 37° C., apyrase 2 U/ml in the combination
Procedure: as §1

A. baumannii DMC1 [11] = assay: as above; assay type: cell-based; settings: 4 hours at 37° C., apyrase 2 U/ml in the combination
Procedure: as §1

E. coli K-12 = assay: as above; assay type: cell-based; settings: 4 hours at 37° C., apyrase 2 U/ml in the combination
Procedure: as §1

A. baumannii AC121 = assay: as above; assay type: cell-based; settings: 4 hours at 37° C., apyrase 2 U/ml in the combination
Procedure: as §1

P. aeruginosa AU7443 = assay: as above; assay type: cell-based; settings: 4 hours at 37° C., apyrase 2 U/ml in the combination
Procedure: as §1

P. aeruginosa AU1292 = assay: as above; assay type: cell-based; settings: 4 hours at 37° C., apyrase 2 U/ml in the combination
Procedure: as §1

[12] = tested on: A. baumannii strain AC121; assay: Viable cell count (CFU) with colistin and apyrase; settings: apyrase 2 U/ml; colistin at less than 20 μg/ml; colistin-resistant strain
Procedure: Approximately 10^5 to 10^6 CFU/ml of the colistin-resistant A. baumannii strain AC121 was grown in the presence of combinations of 0 and 2 U/ml of apyrase and approximately 0 to 20 μg/ml of colistin. After incubation, the numbers of viable cells were determined by counting the colony forming units (CFU) on the plate (data provided as CFU/ml).

A. baumannii ATCC DMC1 = assay: Mouse burn wound infection model, treatment 24 hours after inoculation; settings: treated 24 hours after inoculation, sampled 48 hours after the burn
Procedure: After a burn, A. baumannii ATCC DMC1 was inoculated on skin. After 24 hours, the wounds were treated with apyrase alone, colistin alone, or apyrase and colistin in combination. Skin samples were collected after another 24 hours and the CFU/g skin of A. baumannii ATCC DMC1 was determined.

A. baumannii strain DMC1 = assay: Viable cell count (CFU) with colistin and apyrase; settings: apyrase 1 and 2 U/ml; colistin 4 to 32 μg/ml; colistin alone at the same concentrations
Procedure: Approximately 10^6 CFU/ml of A. baumannii strain DMC1 was grown on solid medium culture plates in the presence of combinations of 0, 1, and 2 U/ml of apyrase and 0, 4, 8, 16, and 32 μg/ml of colistin. After incubation, the numbers of viable cells were determined by counting the colony forming units (CFU) on the plate (data provided as CFU/ml).

[13] = tested on: Burkholderia ambifaria AU5203; assay: Viable cell count (CFU) with colistin and apyrase; settings: apyrase 2 U/ml; colistin at less than 20 μg/ml
Procedure: Burkholderia ambifaria AU5203 was grown in the presence of combinations of 0 and 2 U/ml of apyrase and approximately 0 to 20 μg/ml of colistin. After incubation, the numbers of viable cells were determined by counting the colony forming units (CFU) on the plate (data provided as CFU/ml).

[14] = tested on: P. aeruginosa strain AU8104; assay: Viable cell count (CFU) with colistin and apyrase; settings: apyrase 2 U/ml; colistin at less than 10 μg/ml
Procedure: P. aeruginosa strain AU8104 was grown in the presence of combinations of 0 and 2 U/ml of apyrase and approximately 0 to 20 μg/ml of colistin. After incubation, the numbers of viable cells were determined by counting the colony forming units (CFU) on the plate (data provided as CFU/ml).

[15] = tested on: Burkholderia cepacia AU1114; assay: Viable cell count (CFU) with colistin and apyrase; settings: apyrase 2 U/ml; colistin at less than 20 μg/ml
Procedure: Burkholderia cepacia AU1114 was grown in the presence of combinations of 0 and 2 U/ml of apyrase and approximately 0 to 20 μg/ml of colistin. After incubation, the numbers of viable cells were determined by counting the colony forming units (CFU) on the plate (data provided as CFU/ml).

MSCs = assay: Osteogenic differentiation of MSCs after burn injury (alizarin red), burn mouse model; assay type: in vivo
From the text: (§2) At the cellular level, research has shown that aberrant expression of BMPs in adipose-derived MSCs near the wound site stimulates osteogenic differentiation of multipotent cells. […] Alizarin red is used in to determine, quantitatively by colorimetry, the presence of calcific deposition by cells of an osteogenic lineage. As such, it is a marker of matrix mineralization, a crucial step towards the formation of calcified extracellular matrix associated with true bone. Thus, alizarin red staining indicates differentiation of cells to bone lineages.
(§3) Consequently, it is contemplated that decreasing inflammation at the burn site with apyrase—thus decreasing ATP concentrations, which leads to decreased MSC BMP-2 signaling and decreased osteogenic differentiation—alleviates heterotopic ossification at wound sites.

bacterial culture = assay: Growth of a bacterial culture (optical density at 600 nm) with apyrase; assay type: cell-based; settings: presence vs absence of apyrase over 15 to 20 hours
BMP-2 signaling = BMP-2 signaling of MSCs after burn injury, burn mouse model; assay type: in vivo; settings: apyrase at the burn site
From the text: as §2, §3

[16] = Killing efficiency of antibacterial agents with apyrase (summary of the examples); assay type: cell-based; settings: in some instances
Procedure: Embodiments of the technology relate to the surprising discovery that apyrase and antimicrobial agents act together synergistically. […] As such, the technology provides therapies in which antimicrobial agents are administered in lower doses (e.g., 0.01%, 0.1%, 1%, 5%, 10%, 20%, 50%, 75%, 90%, etc. of the standard recommended dosage) than in conventional technologies. Importantly, this reduces toxic side effects, if present, of antimicrobial agents in subjects and helps to prevent drug resistance of microbes. In addition, the technology provided herein comprising combined use of apyrase and antimicrobial agents provides the only treatment to kill some multiply-resistant strains of pathogens.

Q: With `CCC(C)CCCC(=O)N[C@@H](CCN)C(=O)N[C@H](C(=O)N[C@@H](CCN)C(=O)N[C@H]1CCNC(=O)[C@H]([C@@H](C)O)NC(=O)[C@H](CCN)NC(=O)[C@H](CCN)NC(=O)[C@H](CC(C)C)NC(=O)[C@@H](CC(C)C)NC(=O)[C@H](CCN)NC1=O)[C@@H](C)O` (stereo partly drawn) [Colistin, colistin] ({Heptanoyl(5-Me)}-[Dab]T[Dab][Dab][Dab][dL]L[Dab][Dab]T; lactam 4-C) as the compound, how does the viable cells detected [1] read?
A: The viable cells detected was 10^5 to 10^6 CFU/ml.

Q: And the viable cells detected [2]?
A: Its viable cells detected is 10^6 to 10^7 CFU/ml.

Q: What about the viable cells detected (P. aeruginosa AU0584) of the same compound?
A: Its viable cells detected is 10^3 to 10^4 CFU/ml.

Q: And the viable cells detected [3]?
A: The viable cells detected was 10^5 to 10^6 CFU/ml.

Q: What about the viable cell count [4] of the same compound?
A: Its viable cell count is “approximately 10^5 CFU/ml”.

Q: What about the viable cells detected [5] of the same compound?
A: The viable cells detected was 10^4 to 10^5 CFU/ml.

Q: What about the viable cells detected [6] of the same compound?
A: The viable cells detected was 10^4 to 10^5 CFU/ml.

Q: What about the “viable bacteria number recovered from burn sites, compared with the control group” value (A. baumannii DMC1 [7]) of the same compound?
A: The value was “no significant difference”.

Q: What about the viable cells detected [8] of the same compound?
A: Its viable cells detected is 10^4 to 10^5 CFU/ml.

Q: What about the viable cells detected [9] of the same compound?
A: The viable cells detected was 10^4 to 10^5 CFU/ml.

Q: And the viable cells detected [10]?
A: The viable cells detected was 10^5 to 10^6 CFU/ml.

Q: And the MIC (A. baumannii VBA9)?
A: The MIC was greater than 32 µM.

Q: And the MIC (A. baumannii ATCC 19606)?
A: Its MIC is 4 µM.

Q: And the MIC (K. pneumonia AD)?
A: Its MIC is 16 µM.

Q: And the MIC (S. aureus ATCC 25923)?
A: Its MIC is greater than 32 µM.

Q: And the MIC (P. aeruginosa ATCC 27853)?
A: Its MIC is 1 µM.

Q: And the MIC (P. aeruginosa PAO300)?
A: Its MIC is 2 µM.

Q: And the MIC (A. baumannii AC285)?
A: Its MIC is greater than 32 µM.

Q: What about the MIC (B. multivorans AU0801) of the same compound?
A: Its MIC is greater than 16 µM.

Q: And the MIC (A. baumannii DMC1 [11])?
A: The MIC was greater than 32 µM.

Q: What about the MIC (E. coli K-12) of the same compound?
A: Its MIC is 2 µM.

Q: And the MIC (A. baumannii AC121)?
A: The MIC was greater than 32 µM.

Q: What about the MIC (P. aeruginosa AU7443) of the same compound?
A: The MIC was greater than 16 µM.

Q: And the MIC (P. aeruginosa AU1292)?
A: The MIC was greater than 16 µM.

Q: And the viable cells detected [12]?
A: Its viable cells detected is 10^7 to 10^8 CFU/ml.

Q: What about the “A. baumannii detected on skin” value (A. baumannii ATCC DMC1) of the same compound?
A: Its value is “approximately 10^8 CFU/g of skin”.

Q: And the viable cell count (A. baumannii strain DMC1)?
A: The viable cell count was “approximately 10^7 CFU/ml”.

Q: What about the viable cells detected [13] of the same compound?
A: Its viable cells detected is 10^5 to 10^6 CFU/ml.

Q: And the viable cells detected [14]?
A: The viable cells detected was 10^5 to 10^6 CFU/ml.

Q: And the viable cells detected [15]?
A: The viable cells detected was 10^5 to 10^6 CFU/ml.

Q: For apyrase, which “osteogenic differentiation of MSCs (alizarin red)” value (MSCs; after burn injury and apyrase treatment) is on record?
A: The value was “significant decrease”.

Q: And the “osteogenic capacity of the MSCs” value (MSCs; apyrase at the burn site)?
A: The value was “decreased”.

Q: And the “growth of a bacterial culture (optical density at 600 nm)” value (bacterial culture)?
A: Its value is “does not affect bacterial growth”.

Q: What about the “A. baumannii detected on skin” value (A. baumannii ATCC DMC1) of the same compound?
A: Its value is “approximately 10^8 CFU/g of skin”.

Q: What about the “level of BMP-2 signaling of the MSCs” value (BMP-2 signaling) of the same compound?
A: Its value is “decreased”.

Q: And the “increase of the killing efficiency of antibacterial agents” value [16]?
A: The value was 1000 times.
